SMILES strings stand for the structures. Calls of active or inactive are those of the source. No cut-off for these calls is given here.

Series [1] deals with HeLa. Briefly: Toxicity against human HeLa cells after 2 hrs by trypan blue exclusion method. The series is classed as cell-based.
Series [2] has as its target T1, Peroxiredoxin-1 (Homo sapiens) (UniProt Q06830).
T1 sequence (whole entry): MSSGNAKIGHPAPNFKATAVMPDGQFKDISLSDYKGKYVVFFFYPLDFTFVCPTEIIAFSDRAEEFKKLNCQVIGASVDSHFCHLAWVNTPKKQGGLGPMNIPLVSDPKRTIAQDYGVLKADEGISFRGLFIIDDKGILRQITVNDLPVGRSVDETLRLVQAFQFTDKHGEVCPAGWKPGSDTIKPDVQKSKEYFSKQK
The series is described as follows: Binding affinity to sulfenic acid modified peroxiredoxin human HeLa cells at 10 mM by Western blot. It is filed as cell-based.

For series [3], the target named is Glyceraldehyde-3-phosphate dehydrogenase (Homo sapiens) (UniProt P04406). The series is described as follows: Inhibition of DAz1-biotin binding to sulfenic acid modified GAPDH at 250 uM by Western blot.
Glyceraldehyde-3-phosphate dehydrogenase (Homo sapiens), sequence (P04406 2-335 limits assumed): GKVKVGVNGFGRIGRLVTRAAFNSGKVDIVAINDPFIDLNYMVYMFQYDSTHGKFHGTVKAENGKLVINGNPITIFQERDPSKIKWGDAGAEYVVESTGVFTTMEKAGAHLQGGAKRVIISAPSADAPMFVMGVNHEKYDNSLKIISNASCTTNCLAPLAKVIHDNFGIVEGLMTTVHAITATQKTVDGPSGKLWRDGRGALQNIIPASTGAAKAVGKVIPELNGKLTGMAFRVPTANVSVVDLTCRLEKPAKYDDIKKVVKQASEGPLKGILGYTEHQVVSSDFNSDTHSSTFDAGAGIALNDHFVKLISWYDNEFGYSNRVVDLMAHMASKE
Series [4] is described as follows: Binding affinity to Cdc25A C384S mutant assessed as protein labeling based detection of sulfenic acid modification at 10 mM by Western blot.
The target of series [5] is Glyceraldehyde-3-phosphate dehydrogenase (Homo sapiens) (UniProt P04406). The series is described as follows: Binding affinity to sulfenic acid modified GAPDH by Western blot.
For series [6] the target is unchanged. Briefly: Binding affinity to sulfenic acid modified GAPDH in human HeLa cells at 10 mM by Western blot. It is filed as cell-based.
Series [7] deals with HeLa. Briefly: Binding affinity to sulfenic acid modified actin in human HeLa cells at 10 mM by Western blot. It is filed as cell-based.
Series [8] can be described thus: Binding affinity to Cdc25A C384S mutant assessed as protein labeling based detection of sulfenic acid modification at 20 uM in presence of 5 mM DTT by Western blot.

On to `[N-]=[N+]=NCCCNC(=O)C1CC(=O)CC(=O)C1`, for which the Activity entry in the series on HeLa [1] is reported as “Non-toxic”. Also, the result (in series [2]; in series [4]; in series [5]; in series [6]; in the series on HeLa [7]) was Active. In addition, the inhibition in series [3] stood at 90%. The result in series [8] was inactive.

These data come from ChEMBL document CHEMBL1154543, “Facile synthesis and biological evaluation of a cell-permeable probe to detect redox-regulated proteins” (Bioorg Med Chem Lett, 2009).
